# In ChEMBL document CHEMBL5137031, “The structure-based design of peptidomimetic inhibitors against SARS-CoV-2 3C like protease as Potent anti-viral drug candidate” (Eur J Med Chem, 2022):
# pEC50, pIC50: −log10 of the molar value.
# What was measured:
# [1] = target: Replicase polyprotein 1ab (Severe acute respiratory syndrome coronavirus 2, UniProt P0DTD1); test: Inhibition of SARS-CoV-2 3CL protease expressed in Escherichia coli BL21 (DE3) cells assessed as change in relative fluorescence unit using MCA-TSAVLQSGFRK(DNP)M as substrate preincubated for 30 mins followed by substrate addition and measured after 2 hrs by microplate reader based FRET assay
# SARS-CoV-2 [2] = test: Antiviral activity against SARS-CoV-2 WIV04 infected in African green monkey Vero cells assessed as inhibition of viral proliferation measured at 24 hrs post infection by qRT-PCR analysis; assay type: functional, organism-based; conditions: Severe acute respiratory syndrome coronavirus 2, WIV04, Vero
# A549 = test: Cytotoxicity against human A549 cells assessed as inhibition of cell growth measured after 24 hrs by MTT assay; assay type: toxicity, cell-based; conditions: a549, 24 h
# Vero = test: Cytotoxicity against African green monkey Vero cells assessed as reduction in cell viability incubated for 48 hrs by CCK8 assay; assay type: toxicity, cell-based; conditions: chlorocebus sabaeus
# SARS-CoV-2 [3] = test: Antiviral activity against SARS-CoV-2 WIV04 infected in African green monkey Vero cells assessed as log reduction in viral RNA at 10 uM measured at 24 hrs post infection by qRT-PCR analysis; assay type: functional, Severe acute respiratory syndrome coronavirus 2
Structure (SMILES),pIC50 [1],pEC50 (SARS-CoV-2 [2]),Activity (A549),Activity (Vero),log(activity) (SARS-CoV-2 [3])
O=C[C@H](C[C@@H]1CCCNC1=O)NC(=O)[C@@H](NC(=O)/C=C/c1ccccc1)c1ccccc1,5.69,< 5.52,Non-Toxic,,
CC(C)C[C@H](NC(=O)[C@@H](NC(=O)c1ccc[nH]1)C(C)C)C(=O)N[C@H](C=O)C[C@@H]1CCCNC1=O,6.76,< 5.52,Non-Toxic,,
CC(C)C[C@H](NC(=O)[C@H](CC1CCCCC1)NC(=O)/C=C/c1ccccc1)C(=O)N[C@H](C=O)C[C@@H]1CCCNC1=O,5.82,5.78,Non-Toxic,Non-Toxic,2
CC(C)C[C@H](NC(=O)[C@@H](NC(=O)c1cccnc1)C(C)C)C(=O)N[C@H](C=O)C[C@@H]1CCCNC1=O,6.19,< 5.52,Non-Toxic,,
CC(C)C[C@H](NC(=O)[C@@H](NC(=O)c1ccccn1)C(C)C)C(=O)N[C@H](C=O)C[C@@H]1CCCNC1=O,6.25,< 5.52,Non-Toxic,,
CC(C)C[C@H](NC(=O)[C@@H](NC(=O)c1ccc(Cl)cc1)C(C)C)C(=O)N[C@H](C=O)C[C@@H]1CCCNC1=O,6.83,< 5.52,Non-Toxic,,
COc1ccc(/C=C/C(=O)N[C@H](C(=O)N[C@@H](CC(C)C)C(=O)N[C@H](C=O)C[C@@H]2CCCNC2=O)C(C)C)cc1,6.60,< 5.52,Non-Toxic,,
CC(C)C[C@H](NC(=O)[C@@H](NC(=O)c1cc2ccccc2[nH]1)C(C)C)C(=O)N[C@H](C=O)C[C@@H]1CCCNC1=O,6.53,< 5.52,Non-Toxic,,
O=C[C@H](C[C@@H]1CCNC1=O)NC(=O)[C@H](Cc1cccc(F)c1)NC(=O)c1cc2ccccc2[nH]1,6.07,6.44,Non-Toxic,,
CCCC[C@H](NC(=O)/C=C/c1ccccc1)C(=O)N[C@H](C=O)C[C@@H]1CCCNC1=O,6.56,< 5.52,Non-Toxic,,
CC(C)C[C@H](NC(=O)[C@@H](NC(=O)C1CCCCC1)C(C)C)C(=O)N[C@H](C=O)C[C@@H]1CCCNC1=O,5.85,< 5.52,Non-Toxic,,
CC(C)C[C@H](NC(=O)[C@@H](NC(=O)c1ccc(-c2ccccc2)cc1)C(C)C)C(=O)N[C@H](C=O)C[C@@H]1CCCNC1=O,6.39,< 5.52,Non-Toxic,,
Cc1ccc(/C=C/C(=O)N[C@H](C(=O)N[C@@H](CC(C)C)C(=O)N[C@H](C=O)C[C@@H]2CCCNC2=O)C(C)C)cc1,6.71,< 5.52,Non-Toxic,,
C#CC[C@H](NC(=O)/C=C/c1ccccc1)C(=O)N[C@H](C=O)C[C@@H]1CCCNC1=O,5.48,< 5.52,Non-Toxic,,
CC(C)C[C@H](NC(=O)[C@@H](NC(=O)c1ccccc1)C(C)C)C(=O)N[C@H](C=O)C[C@@H]1CCCNC1=O,6.59,< 5.52,Non-Toxic,,
CC(C)C[C@H](NC(=O)[C@@H](NC(=O)CCc1ccccc1)C(C)C)C(=O)N[C@H](C=O)C[C@@H]1CCCNC1=O,6.70,< 5.52,Non-Toxic,,
CC(C)[C@H](NC(=O)/C=C/c1ccccc1)C(=O)N[C@H](C=O)C[C@@H]1CCCNC1=O,5.16,< 5.52,Non-Toxic,,
CC(C)C[C@H](NC(=O)[C@@H](NC(=O)/C=C/c1ccc(-c2ccccc2)cc1)C(C)C)C(=O)N[C@H](C=O)C[C@@H]1CCCNC1=O,6.53,< 5.52,Non-Toxic,,
CC(C)C[C@H](NC(=O)[C@@H](NC(=O)c1ccc([N+](=O)[O-])cc1)C(C)C)C(=O)N[C@H](C=O)C[C@@H]1CCCNC1=O,6.68,< 5.52,Non-Toxic,,
CCC[C@H](NC(=O)/C=C/c1ccccc1)C(=O)N[C@@H](CC(C)C)C(=O)N[C@H](C=O)C[C@@H]1CCCNC1=O,6.27,< 5.52,Non-Toxic,,

Structure (SMILES),pIC50 [1],pEC50 (SARS-CoV-2 [2]),Activity (A549),Activity (Vero),log(activity) (SARS-CoV-2 [3])
CC(C)C[C@H](NC(=O)[C@@H](NC(=O)c1ccc2cc[nH]c2c1)C(C)C)C(=O)N[C@H](C=O)C[C@@H]1CCCNC1=O,6.66,< 5.52,Non-Toxic,,
CC(C)C[C@H](NC(=O)[C@@H](NC(=O)/C=C/c1ccccc1)C(C)C)C(=O)N[C@H](C=O)C[C@@H]1CCCNC1=O,6.55,< 5.52,Non-Toxic,,
CC(C)C[C@H](NC(=O)[C@@H](NC(=O)/C=C/c1ccc(C(C)C)cc1)C(C)C)C(=O)N[C@H](C=O)C[C@@H]1CCCNC1=O,6.64,< 5.52,Non-Toxic,,
CC(C)C[C@H](NC(=O)[C@@H](NC(=O)/C=C/c1ccc(F)cc1)C(C)C)C(=O)N[C@H](C=O)C[C@@H]1CCCNC1=O,6.51,< 5.52,Non-Toxic,,
C#CC[C@H](NC(=O)/C=C/c1ccccc1)C(=O)N[C@H](C=O)C[C@@H]1CCNC1=O,5.41,< 5.52,Non-Toxic,,
CC[C@H](C)[C@H](NC(=O)/C=C/c1ccccc1)C(=O)N[C@@H](CC(C)C)C(=O)N[C@H](C=O)C[C@@H]1CCCNC1=O,6.45,< 5.52,Non-Toxic,,
CC(C)C[C@H](NC(=O)[C@@H](NC(=O)C1CCOCC1)C(C)C)C(=O)N[C@H](C=O)C[C@@H]1CCCNC1=O,6.55,< 5.52,Non-Toxic,,
CC(C)C[C@H](NC(=O)[C@@H](NC(=O)c1ccncc1)C(C)C)C(=O)N[C@H](C=O)C[C@@H]1CCCNC1=O,6.82,< 5.52,Non-Toxic,,
C=CC[C@H](NC(=O)/C=C/c1ccccc1)C(=O)N[C@H](C=O)C[C@@H]1CCCNC1=O,5.87,< 5.52,Non-Toxic,,
CC(C)C[C@H](NC(=O)[C@@H](NC(=O)/C=C/c1ccccc1F)C(C)C)C(=O)N[C@H](C=O)C[C@@H]1CCCNC1=O,6.76,< 5.52,Non-Toxic,,
C[C@H](NC(=O)/C=C/c1ccccc1)C(=O)N[C@H](C=O)C[C@@H]1CCCNC1=O,4.91,< 5.52,Non-Toxic,,
CC(C)(C)[C@H](NC(=O)/C=C/c1ccccc1)C(=O)N[C@H](C=O)C[C@@H]1CCCNC1=O,5.46,< 5.52,Non-Toxic,,2
CC(C)C[C@H](NC(=O)[C@@H](NC(=O)c1ccc(F)cc1)C(C)C)C(=O)N[C@H](C=O)C[C@@H]1CCCNC1=O,6.71,< 5.52,Non-Toxic,,
CC(C)C[C@H](NC(=O)[C@@H](NC(=O)c1ccco1)C(C)C)C(=O)N[C@H](C=O)C[C@@H]1CCCNC1=O,6.63,< 5.52,Non-Toxic,,
CC(C)C[C@H](NC(=O)[C@@H](NC(=O)c1ccc(C(F)(F)F)cc1)C(C)C)C(=O)N[C@H](C=O)C[C@@H]1CCCNC1=O,5.85,< 5.52,Non-Toxic,,
O=C[C@H](C[C@@H]1CCCNC1=O)NC(=O)[C@H](CC1CC1)NC(=O)/C=C/c1ccccc1,6.53,5.95,Non-Toxic,Non-Toxic,
CC(C)C[C@H](NC(=O)[C@@H](NC(=O)c1ccoc1)C(C)C)C(=O)N[C@H](C=O)C[C@@H]1CCCNC1=O,6.76,< 5.52,Non-Toxic,,
CC(C)C[C@H](NC(=O)[C@@H](NC(=O)/C=C/c1ccc(N(C)C)cc1)C(C)C)C(=O)N[C@H](C=O)C[C@@H]1CCCNC1=O,6.23,< 5.52,Non-Toxic,,
CC(C)C[C@H](NC(=O)[C@@H](NC(=O)/C=C/c1cccc(F)c1)C(C)C)C(=O)N[C@H](C=O)C[C@@H]1CCCNC1=O,6.59,< 5.52,Non-Toxic,,
